Data taken from patent US11110146B2, “Methods for reducing platelet aggregation and treating cardiovascular disease and other medical disorders” (Paradise Health, Inc., priority 2014, dated 2021).
Several values for one entry are separate records, joined by “and”; a condition that tells them apart may be missing. Equal values may be shown once.

What was measured:
Assay type in all cases: cell-based, human
[1] = test system: platelets in platelet-rich plasma (PRP); assay: Light transmission aggregometry, platelet aggregation induced by collagen
Experimental: (§1) Whole blood was collected into 0.105 M buffered sodium citrate as the anticoagulant. Platelet-rich plasma (PRP) was prepared by centrifugation of whole blood at 135×g for 20 min. The residual blood sample was then centrifuged at 2,500×g for 15 min to obtain platelet-poor plasma (PPP). Platelet counts in the PRP were determined using a Horiba Micros 60 cell counter. For LTA experiments, platelet counts in PRP were adjusted to 250,000/μL using autologous donor PPP as the diluent.
Twenty five (25) jμL of the stock solution of collagen (1 mg/ml) was added to 475 μL of collagen dilution buffer to obtain a 50 μg/ml working solution. Fifty (50) μL of collagen solution was added to 450 μL of adjusted PRP to perform aggregation tests. The final concentration of collagen used for aggregation testing was 5 μg/ml.
(§2) The samples were incubated in a water bath at 37° C. for 30 min before performing the LTA experiments. […]
(§3) After incubation of PRP with test articles, 450 μL of PRP were transferred into aggregation cuvettes for LTA testing. All aggregation experiments were performed on a LTA-Chronolog 700 aggregometer with Aggrolink 8 software. The instrument was set for an optical mode of data acquisition and the stir bar speed was set to 1.200 rpm. Autologous PPP was used in the reference channel of the aggregometer and baselines were set prior to addition of agonists. Fifty (50) μL of working agonist solutions (AA, ADP, and Collagen) were added to the cuvettes and tracings recorded for a minimum of 6 minutes. The maximal aggregation (MA) response was calculated using Aggrolink software for reporting the data.

[2] = test system: platelets in platelet-rich plasma (PRP); assay: Light transmission aggregometry, platelet aggregation induced by arachidonic acid
Experimental: as §1, with “All the experiments were conducted using healthy adult volunteers not taking aspirin or other medications that affect platelet aggregation. Whole” for “Whole”
The stock vial (16 mM) of AA was diluted by adding 0.5 mL of deionized water to obtain a 1.6 mM AA solution. The AA solution was maintained on ice and was used within 6 hr of preparation.
The samples were incubated in a water bath at 37° C. for 30 min before performing the LTA experiments.
The adjusted PRP was incubated with indicated concentration of GoPE (Table 7) for 30 min at 37° C.
as §3

[3] = test system: platelets in platelet-rich plasma (PRP); assay: Light transmission aggregometry, platelet aggregation induced by adenosine diphosphate; details: for inhibition of platelet aggregation in the presence of 5 or 20 μM ADP: at any of the concentrations tested
Experimental: as §1, with “All the experiments were conducted using healthy adult volunteers not taking aspirin or other medications that affect platelet aggregation. Whole” for “Whole”
Stock solutions of ADP (200 μM) were prepared in saline and stored frozen at −80° C. A vial of stock ADP was thawed and further diluted in saline to obtain a 50 μM ADP solution. Fifty (50) μL of ADP solution (200 and 50 μM) were added to 450 μL of adjusted PRP to perform aggregation tests with 20 μM ADP and 5 μM ADP.
as §2, §3

[4] = Aspirin 10 μM, individual donor
[5] = Aspirin 100 μM, individual donor
[6] = Aspirin 1000 μM, individual donor
[7] = substance at 10 μM and higher (6-paradol: in most experiments)
[8] = substance at a concentration of 1 μM
[9] = 6-paradol 1 μM, individual donor
[10] = 6-paradol 10 μM, individual donor
[11] = 6-paradol 100 μM, individual donor
[12] = 6-paradol 1000 μM, individual donor

## CC(=O)Oc1ccccc1C(=O)O [Aspirin, aspirin]
[1]; Aspirin 1 μM, Mean
  Maximal Percent Aggregation Response to 5 μg/mL Collagen: 94%
[1]; Aspirin 1 μM, individual donor
  Maximal Percent Aggregation Response to 5 μg/mL Collagen: 100% (2×) and 82% and 92% and 97%
[1]; Aspirin 10 μM, Mean
  Maximal Percent Aggregation Response to 5 μg/mL Collagen: 91%
[1]; [4]
  Maximal Percent Aggregation Response to 5 μg/mL Collagen: 86% and 100% (2×) and 80% and 87%
[1]; Aspirin 100 μM, Mean
  Maximal Percent Aggregation Response to 5 μg/mL Collagen: 65%
[1]; [5]
  Maximal Percent Aggregation Response to 5 μg/mL Collagen: 52% and 92% and 61% and 90% and 28%
[1]; Aspirin 1000 μM, Mean
  Maximal Percent Aggregation Response to 5 μg/mL Collagen: 56%
[1]; [6]
  Maximal Percent Aggregation Response to 5 μg/mL Collagen: 39% and 75% and 52% and 83% and 32%
[1]; Homo sapiens, Platelet, read-out: inhibition of collagen-mediated platelet aggregation response relative to DMSO control
  inhibition at 1000 µM: ~37%
[2]; Aspirin 1 μM, Mean
  Maximal Percent Aggregation Response to 1.6 mM Arachidonic Acid: 69%
[2]; Aspirin 1 μM, individual donor
  Maximal Percent Aggregation Response to 1.6 mM Arachidonic Acid: 75% and 0% and 100% and 73% and 95%
[2]; Aspirin 10 μM, Mean
  Maximal Percent Aggregation Response to 1.6 mM Arachidonic Acid: 2%
[2]; [4]
  Maximal Percent Aggregation Response to 1.6 mM Arachidonic Acid: 0% (3×) and 1% and 7%
[2]; Aspirin 100 μM, Mean
  Maximal Percent Aggregation Response to 1.6 mM Arachidonic Acid: 1%
[2]; [5]
  Maximal Percent Aggregation Response to 1.6 mM Arachidonic Acid: 0% (4×) and 5%
[2]; Aspirin 1000 μM, Mean
  Maximal Percent Aggregation Response to 1.6 mM Arachidonic Acid: 2%
[2]; [6]
  Maximal Percent Aggregation Response to 1.6 mM Arachidonic Acid: 0% (3×) and 8%
[2]; [7]
  inhibition of AA-mediated platelet aggregation: near complete inhibition
[2]; [8]
  inhibition of AA-mediated platelet aggregation: did not significantly inhibit
[3]; Aspirin 1 μM, Mean
  Maximal Percent Aggregation Response to 5 μM Adenosine Diphosphate: 82%
  Maximal Percent Aggregation Response to 20 μM Adenosine Diphosphate: 90%
[3]; Aspirin 1 μM, individual donor
  Maximal Percent Aggregation Response to 5 μM Adenosine Diphosphate: 78% and 83% and 92% and 73%
  Maximal Percent Aggregation Response to 20 μM Adenosine Diphosphate: 91% and 87% and 100% and 81% and 90%
[3]; Aspirin 10 μM, Mean
  Maximal Percent Aggregation Response to 5 μM Adenosine Diphosphate: 70%
  Maximal Percent Aggregation Response to 20 μM Adenosine Diphosphate: 80%
[3]; [4]
  Maximal Percent Aggregation Response to 5 μM Adenosine Diphosphate: 82% and 63% and 84% and 52%
  Maximal Percent Aggregation Response to 20 μM Adenosine Diphosphate: 78% (2×) and 92% and 68% and 84%
[3]; Aspirin 100 μM, Mean
  Maximal Percent Aggregation Response to 5 μM Adenosine Diphosphate: 71%
  Maximal Percent Aggregation Response to 20 μM Adenosine Diphosphate: 86%
[3]; [5]
  Maximal Percent Aggregation Response to 5 μM Adenosine Diphosphate: 63% and 94% and 75% and 53%
  Maximal Percent Aggregation Response to 20 μM Adenosine Diphosphate: 63% and 87% (2×) and 95% and 97%
[3]; Aspirin 1000 μM, Mean
  Maximal Percent Aggregation Response to 5 μM Adenosine Diphosphate: 74%
  Maximal Percent Aggregation Response to 20 μM Adenosine Diphosphate: 80%
[3]; [6]
  Maximal Percent Aggregation Response to 5 μM Adenosine Diphosphate: 71% and 90% and 86% and 50%
  Maximal Percent Aggregation Response to 20 μM Adenosine Diphosphate: 72% and 84% and 80% and 78% and 88%
[3]
  inhibition of platelet aggregation in the presence of 5 or 20 μM ADP: did not significantly inhibit

## CCCCCCCC(=O)CCc1ccc(O)c(OC)c1 [6-paradol]
[1]; 6-paradol 1 μM, Mean
  Maximal Percent Aggregation Response to 5 μg/ml Collagen: 89%
[1]; [9]
  Maximal Percent Aggregation Response to 5 μg/ml Collagen: 81% and 100% and 77% and 97% and 90%
[1]; 6-paradol 10 μM, Mean
  Maximal Percent Aggregation Response to 5 μg/ml Collagen: 95%
[1]; [10]
  Maximal Percent Aggregation Response to 5 μg/ml Collagen: 82% and 100% (2×) and 97% and 98%
[1]; 6-paradol 100 μM, Mean
  Maximal Percent Aggregation Response to 5 μg/ml Collagen: 85%
[1]; [11]
  Maximal Percent Aggregation Response to 5 μg/ml Collagen: 82% and 100% and 88% and 89% and 64%
[1]; 6-paradol 1000 μM
  inhibition of collagen-mediated platelet aggregation response: substantially inhibited
[1]; 6-paradol 1000 μM, Mean
  Maximal Percent Aggregation Response to 5 μg/ml Collagen: 41%
[1]; [12]
  Maximal Percent Aggregation Response to 5 μg/ml Collagen: 23% and 60% and 36% and 74% and 10%
[1]; 6-paradol concentrations of 100 μM or less
  inhibition of collagen-mediated platelet aggregation: did not significantly inhibit
[2]; 6-paradol 1 μM, Mean
  Maximal Percent Aggregation Response to 1.6 mM Arachidonic Acid: 82%
[2]; [9]
  Maximal Percent Aggregation Response to 1.6 mM Arachidonic Acid: 72% and 77% and 96% and 65% and 98%
[2]; 6-paradol 10 μM, Mean
  Maximal Percent Aggregation Response to 1.6 mM Arachidonic Acid: 51%
[2]; [10]
  Maximal Percent Aggregation Response to 1.6 mM Arachidonic Acid: 0% (2×) and 99% and 71% and 87%
[2]; 6-paradol 100 μM, Mean
  Maximal Percent Aggregation Response to 1.6 mM Arachidonic Acid: 2%
[2]; [11]
  Maximal Percent Aggregation Response to 1.6 mM Arachidonic Acid: 0% (4×) and 9%
[2]; 6-paradol 1000 μM, Mean
  Maximal Percent Aggregation Response to 1.6 mM Arachidonic Acid: 1%
[2]; [12]
  Maximal Percent Aggregation Response to 1.6 mM Arachidonic Acid: 0% (4×) and 3%
[2]; [7]
  inhibition of AA-mediated platelet aggregation: Near complete inhibition
[2]; [8]
  inhibition of AA-mediated platelet aggregation: did not significantly inhibit
[3]; 6-paradol 1 μM, Mean
  Maximal Percent Aggregation Response to 5 μM Adenosine Diphosphate: 77%
  Maximal Percent Aggregation Response to 20 μM Adenosine Diphosphate: 83%
[3]; [9]
  Maximal Percent Aggregation Response to 5 μM Adenosine Diphosphate: 83% and 81% and 92% and 50%
  Maximal Percent Aggregation Response to 20 μM Adenosine Diphosphate: 70% and 85% and 88% and 74% and 99%
[3]; 6-paradol 10 μM, Mean
  Maximal Percent Aggregation Response to 5 μM Adenosine Diphosphate: 74%
  Maximal Percent Aggregation Response to 20 μM Adenosine Diphosphate: 86%
[3]; [10]
  Maximal Percent Aggregation Response to 5 μM Adenosine Diphosphate: 77% and 78% and 96% and 46%
  Maximal Percent Aggregation Response to 20 μM Adenosine Diphosphate: 81% and 82% and 100% and 84% and 85%
[3]; 6-paradol 100 μM, Mean
  Maximal Percent Aggregation Response to 5 μM Adenosine Diphosphate: 63%
  Maximal Percent Aggregation Response to 20 μM Adenosine Diphosphate: 79%
[3]; [11]
  Maximal Percent Aggregation Response to 5 μM Adenosine Diphosphate: 57% and 67% and 81% and 45%
  Maximal Percent Aggregation Response to 20 μM Adenosine Diphosphate: 63% and 73% and 95% and 76% and 90%
[3]; 6-paradol 1000 μM, Mean
  Maximal Percent Aggregation Response to 5 μM Adenosine Diphosphate: 50%
  Maximal Percent Aggregation Response to 20 μM Adenosine Diphosphate: 66%
[3]; [12]
  Maximal Percent Aggregation Response to 5 μM Adenosine Diphosphate: 55% and 53% and 59% and 33%
  Maximal Percent Aggregation Response to 20 μM Adenosine Diphosphate: 53% and 67% (3×) and 78%
[3]
  inhibition of platelet aggregation in the presence of 5 or 20 μM ADP: did not significantly inhibit
